The source of these data is article PMC12018053 (Biochemistry and Biophysics Reports, 2025).

For one assay, the target named is T1, 5-HT3 (Homo sapiens, UniProt P46098).
T1 sequence (P46098 24-478): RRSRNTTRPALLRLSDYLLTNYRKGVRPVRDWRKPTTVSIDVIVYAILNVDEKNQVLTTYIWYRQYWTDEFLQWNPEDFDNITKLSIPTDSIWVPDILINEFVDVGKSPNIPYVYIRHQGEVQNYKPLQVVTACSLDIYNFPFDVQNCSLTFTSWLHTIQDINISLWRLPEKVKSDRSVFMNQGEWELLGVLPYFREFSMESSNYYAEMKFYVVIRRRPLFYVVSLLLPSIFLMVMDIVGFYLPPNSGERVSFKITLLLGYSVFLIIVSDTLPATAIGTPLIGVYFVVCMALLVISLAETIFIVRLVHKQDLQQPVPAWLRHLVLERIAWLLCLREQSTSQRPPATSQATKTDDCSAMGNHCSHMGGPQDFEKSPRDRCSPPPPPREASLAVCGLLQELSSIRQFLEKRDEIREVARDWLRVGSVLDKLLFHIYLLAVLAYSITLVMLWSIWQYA
The assay is described as follows: NIMH PDSP primary binding screen, 5-HT3. As to conditions: read-out: Inhibition (%) 5-HT3.

Another assay has as its target T2, Human sEH (Homo sapiens, UniProt P34913).
T2 sequence (P34913 1-555): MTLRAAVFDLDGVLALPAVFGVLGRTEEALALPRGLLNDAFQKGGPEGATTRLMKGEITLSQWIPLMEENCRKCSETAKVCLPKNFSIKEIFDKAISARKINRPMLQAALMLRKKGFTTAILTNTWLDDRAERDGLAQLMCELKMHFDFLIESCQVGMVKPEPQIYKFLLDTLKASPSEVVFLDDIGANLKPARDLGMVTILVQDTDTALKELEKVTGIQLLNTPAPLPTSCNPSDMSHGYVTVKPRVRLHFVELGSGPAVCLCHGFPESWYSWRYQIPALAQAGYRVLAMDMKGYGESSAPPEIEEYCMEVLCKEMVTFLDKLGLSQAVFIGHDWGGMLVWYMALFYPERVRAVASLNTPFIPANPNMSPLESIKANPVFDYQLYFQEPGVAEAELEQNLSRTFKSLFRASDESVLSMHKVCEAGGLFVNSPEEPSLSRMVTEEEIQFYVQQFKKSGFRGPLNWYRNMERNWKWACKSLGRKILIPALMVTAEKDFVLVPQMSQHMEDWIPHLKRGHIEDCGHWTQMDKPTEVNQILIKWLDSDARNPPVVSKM
The assay is described as follows: sEH fluorescent-based inhibition assay. Type of assay: biochemical.

With `O=C(Nc1ccc(-c2ccc3ccncc3c2)cc1)C1CCN(S(=O)(=O)c2ccccc2Cl)CC1` [Compound 4f, 1-((2-chlorophenyl)sulfonyl)-N-(4-(isoquinolin-7-yl)phenyl)piperidine-4-carboxamide], the inhibition (commonly the change of the read-out against control, counted positive when it falls) at 10 µM at 5-HT3 was -0.28 ± 5.94%. In addition, the IC50 (as a rule, the concentration that gives 50% inhibition) against Human sEH is 2.2 nM.
